Measurements: patent US9605006B2, “5-aryl-1-imino-1-oxo-[1,2,4]thiadiazines” (Hoffmann-La Roche Inc., priority 2013, dated 2017)
pIC50: −log10 of the molar value.

Each compound was assayed against BACE1 (Homo sapiens (Human), UniProt P56817) (assay: Cellular Aβ-lowering assay (Abeta 40 AlphaLISA Assay)). Conditions: HEK293 APP cells, Aβ40 in culture supernatant after 18-20 hrs incubation.
Sequence of BACE1 (P56817 46-501): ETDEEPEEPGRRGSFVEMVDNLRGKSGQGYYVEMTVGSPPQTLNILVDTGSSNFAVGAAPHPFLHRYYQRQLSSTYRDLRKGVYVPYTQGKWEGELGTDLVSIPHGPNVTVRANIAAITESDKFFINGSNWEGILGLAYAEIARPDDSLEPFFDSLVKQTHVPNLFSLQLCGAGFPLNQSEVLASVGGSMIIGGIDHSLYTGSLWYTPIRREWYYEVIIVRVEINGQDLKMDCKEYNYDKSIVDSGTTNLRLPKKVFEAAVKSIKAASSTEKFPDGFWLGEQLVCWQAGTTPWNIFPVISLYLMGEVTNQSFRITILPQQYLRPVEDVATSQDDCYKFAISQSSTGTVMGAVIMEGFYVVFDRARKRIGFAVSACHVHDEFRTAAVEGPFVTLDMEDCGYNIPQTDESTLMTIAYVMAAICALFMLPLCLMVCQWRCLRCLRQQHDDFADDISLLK
Format: cell-based
Description: Cellular Aβ-Lowering Assay:
The Abeta 40 AlphaLISA Assay can be used. The HEK293 APP cells were seeded in 96 well Microtiter plates in cell culture medium (Iscove's, plus 10% (v/v) fetal bovine serum, penicillin/streptomycin) to about 80% confluency and the compounds were added at a 3× concentration in ⅓ volume of culture medium (final DMSO concentration was kept at 1% v/v). After 18-20 hrs incubation at 37° C. and 5% CO2 in a humidified incubator, the culture supernatants were harvested for the determination of Aβ40 concentrations using Perkin-Elmer Human Amyloid beta 1-40 (high specificity) Kit (Cat# AL275C).
In a Perkin-Elmer White Optiplate-384 (Cat#6007290), 2 ul culture supernatants were combined with 2μl of a 10× AlphaLISA Anti-hAβAcceptor beads+Biotinylated Antibody Anti-Aβ1-40 Mix (50 μg/mL/5 nM). After 1 hour room temperature incubation, 16 μl of a 1.25× preparation of Streptavidin (SA) Donor beads (25 μg/mL) were added and incubated for 30 minutes in the Dark. Light Emission at 615 nm was then recorded using EnVision-Alpha Reader. Levels of Aβ40 in the culture supernatants were calculated as percentage of maximum signal (cells treated with 1% DMSO without inhibitor). The IC50 values were calculated using the Excel XLfit software.
In the case of `CC1(c2cc(NC(=O)c3ccc(C#N)cn3)ccc2F)CS2(=O)=NCCCCN2C(N)=N1` (stereo in doubt) [Example 1, 5-cyano-pyridine-2-carboxylic acid [3-((3RS,4aRS)-1-amino-3-methyl-4a-oxo-3,4,6,7,8,9-hexahydro-4aλ^6-thia-2,5,9a-triaza-benzocyclohepten-3-yl)-4-fluoro-phenyl]-amide], the pIC50 was 7.35. In the case of `CC1(c2cc(NC(=O)c3ccc(C#N)cn3)ccc2F)CS2(=O)=NCCCCN2C(N)=N1` (stereo in doubt) [Example 2, 5-cyano-pyridine-2-carboxylic acid [3-((3RS,4aSR)-1-amino-3-methyl-4a-oxo-3,4,6,7,8,9-hexahydro-4aλ^6-thia-2,5,9a-triaza-benzocyclohepten-3-yl)-4-fluoro-phenyl]-amide], the pIC50 was 8.70. Work on `C[C@@]1(c2cc(NC(=O)c3ncc(C#N)cc3Cl)ccc2F)CS2(=O)=NCCCCN2C(N)=N1` (stereo in doubt) [Example 20, 3-Chloro-5-cyano-pyridine-2-carboxylic acid [3-((3R,4aS)-1-amino-3-methyl-4a-oxo-3,4,6,7,8,9-hexahydro-4aλ^6-thia-2,5,9a-triaza-benzocyclohepten-3-yl)-4-fluoro-phenyl]-amide] yielded a pIC50 of 9.00. Work on `C[C@@]1(c2cc(NC(=O)c3ccc(OCC(F)(F)F)cn3)ccc2F)CS2(=O)=NCCCCN2C(N)=N1` (stereo in doubt) [Example 21, 5-(2,2,2-Trifluoro-ethoxy)-pyridine-2-carboxylic acid [3-((3R,4aS)-1-amino-3-methyl-4a-oxo-3,4,6,7,8,9-hexahydro-4aλ^6-thia-2,5,9a-triaza-benzocyclohepten-3-yl)-4-fluoro-phenyl]-amide] yielded a pIC50 of 8.00. In the case of `CC#CCOc1cnc(C(=O)Nc2ccc(F)c([C@]3(C)CS4(=O)=NCCCCN4C(N)=N3)c2)cn1` (stereo in doubt) [Example 22, 5-But-2-ynyloxy-pyrazine-2-carboxylic acid [3-((3R,4aS)-1-amino-3-methyl-4a-oxo-3,4,6,7,8,9-hexahydro-4aλ^6-thia-2,5,9a-triaza-benzocyclohepten-3-yl)-4-fluoro-phenyl]-amide], the pIC50 was 9.70. With `Cc1cc(F)cnc1C(=O)Nc1ccc(F)c([C@]2(C)CS3(=O)=NCCCCN3C(N)=N2)c1` (stereo in doubt) [Example 23, 5-Fluoro-3-methyl-pyridine-2-carboxylic acid [3-((3R,4aS)-1-amino-3-methyl-4a-oxo-3,4,6,7,8,9-hexahydro-4aλ^6-thia-2,5,9a-triaza-benzocyclohepten-3-yl)-4-fluoro-phenyl]-amide] the pIC50 was 8.82. Compound `CC1(c2ccccc2F)CS2(=O)=NCCCCN2C(N)=N1` (stereo in doubt) [Example A20a2, (3RS,4aSR)-3-(2-Fluoro-phenyl)-3-methyl-4a-oxo-3,4,6,7,8,9-hexahydro-4aλ^6-thia-2,5,9a-triaza-benzocyclohepten-1-ylamine] has a pIC50 of 5.98. `C[C@@]1(c2cc(-c3cc(-c4ncc(Cl)cn4)no3)ccc2F)C[S@@]2(=O)=NCCCCN2C(N)=N1` [Example 13, (9R,11R)-7-Amino-9-(5-(3-(5-chloropyrimidin-2-yl)isoxazol-5-yl)-2-fluorophenyl)-9-methyl-2,3,4,5,9,10-hexahydro-[1,2,4]thiadiazino[1,2-a][1,2,7]thiadiazepine 11-oxide 2,2,2-trifluoroacetate] was tested, and the pIC50 was 7.92. Compound `C[C@@]1(c2cc(-c3cc(-c4ncc(Cl)cn4)no3)ccc2F)C[S@]2(=O)=NCCCCN2C(N)=N1` [Example 14, (9R,11S)-7-Amino-9-(5-(3-(5-chloropyrimidin-2-yl)isoxazol-5-yl)-2-fluorophenyl)-9-methyl-2,3,4,5,9,10-hexahydro-[1,2,4]thiadiazino[1,2-a][1,2,7]thiadiazepine 11-oxide 2,2,2-trifluoroacetate] has a pIC50 of 7.02. `C[C@@]1(c2cc(-c3cn(-c4ccc(C#N)cn4)nn3)ccc2F)C[S@]2(=O)=NCCCCN2C(N)=N1` [Example 15, 6-(4-(3-((9R,11S)-7-Amino-9-methyl-11-oxido-2,3,4,5,9,10-hexahydro-[1,2,4]thiadiazino[1,2-a][1,2,7]thiadiazepin-9-yl)-4-fluorophenyl)-1H-1,2,3-triazol-1-yl)nicotinonitrile 2,2,2-trifluoroacetate] was tested, and the pIC50 was 7.02. With `C[C@@]1(c2cc(C#Cc3ccc(C#N)cc3)ccc2F)C[S@@]2(=O)=NCCCCN2C(N)=N1` [Example 16, 4-((3-((9R,11R)-7-amino-9-methyl-11-oxido-2,3,4,5,9,10-hexahydro-[1,2,4]thiadiazino[1,2-a][1,2,7]thiadiazepin-9-yl)-4-fluorophenyl)ethynyl)benzonitrile 2,2,2-trifluoroacetate] the pIC50 was 7.68. `COc1cnc(-c2cc(-c3ccc(F)c([C@]4(C)C[S@@]5(=O)=NCCCCN5C(N)=N4)c3)on2)cn1` [Example 17, (9R,11R)-7-Amino-9-(2-fluoro-5-(3-(5-methoxypyrazin-2-yl)isoxazol-5-yl)phenyl)-9-methyl-2,3,4,5,9,10-hexahydro-[1,2,4]thiadiazino[1,2-a][1,2,7]thiadiazepine 11-oxide 2,2,2-trifluoroacetate] showed a pIC50 of 8.05. For `COc1cnc(-c2cc(-c3ccc(F)c([C@]4(C)C[S@]5(=O)=NCCCCN5C(N)=N4)c3)on2)cn1` [Example 18, (9R,11S)-7-amino-9-(2-fluoro-5-(3-(5-methoxypyrazin-2-yl)isoxazol-5-yl)phenyl)-9-methyl-2,3,4,5,9,10-hexahydro-[1,2,4]thiadiazino[1,2-a][1,2,7]thiadiazepine 11-oxide 2,2,2-trifluoroacetate], the pIC50 was 6.16. In the case of `C[C@@]1(c2cc(-c3cc(-c4cnc(OCC(F)F)cn4)no3)ccc2F)C[S@@]2(=O)=NCCCCN2C(N)=N1` [Example 19, (9R,11R)-7-Amino-9-(5-(3-(5-(2,2-difluoroethoxy)pyrazin-2-yl)isoxazol-5-yl)-2-fluorophenyl)-9-methyl-2,3,4,5,9,10-hexahydro-[1,2,4]thiadiazino[1,2-a][1,2,7]thiadiazepine 11-oxide 2,2,2-trifluoroacetate], the pIC50 was 7.85. For `Cc1cc(C#N)cnc1C(=O)Nc1ccc(F)c([C@]2(C)CS3(=O)=NCC(F)(F)CN3C(N)=N2)c1` (stereo partly drawn) [Example 25, N-(3-((8R)-6-amino-3,3-difluoro-8-methyl-10-oxido-3,4,8,9-tetrahydro-2H-[1,2,6]thiadiazino[1,2-a][1,2,4]thiadiazin-8-yl)-4-fluorophenyl)-5-cyano-3-methylpicolinamide], the pIC50 was 8.70.
